Molecules are shown by their SMILES.

For this assay, the target named is Voltage-gated inwardly rectifying potassium channel KCNH2 (Homo sapiens) (UniProt Q12809). The assay can be described thus: compounds reversing dofetilide inhibition of hERG current – manual patch clamp, HEK293 cells, confirmation (AID 2605). As to conditions: dofetilide rescue, at 10 µM, stronger effect = higher value; for potentiation: measured here: hERG potentiation without dofetilide.
Sequence of Voltage-gated inwardly rectifying potassium channel KCNH2 (Homo sapiens) (Q12809 whole entry, looked up): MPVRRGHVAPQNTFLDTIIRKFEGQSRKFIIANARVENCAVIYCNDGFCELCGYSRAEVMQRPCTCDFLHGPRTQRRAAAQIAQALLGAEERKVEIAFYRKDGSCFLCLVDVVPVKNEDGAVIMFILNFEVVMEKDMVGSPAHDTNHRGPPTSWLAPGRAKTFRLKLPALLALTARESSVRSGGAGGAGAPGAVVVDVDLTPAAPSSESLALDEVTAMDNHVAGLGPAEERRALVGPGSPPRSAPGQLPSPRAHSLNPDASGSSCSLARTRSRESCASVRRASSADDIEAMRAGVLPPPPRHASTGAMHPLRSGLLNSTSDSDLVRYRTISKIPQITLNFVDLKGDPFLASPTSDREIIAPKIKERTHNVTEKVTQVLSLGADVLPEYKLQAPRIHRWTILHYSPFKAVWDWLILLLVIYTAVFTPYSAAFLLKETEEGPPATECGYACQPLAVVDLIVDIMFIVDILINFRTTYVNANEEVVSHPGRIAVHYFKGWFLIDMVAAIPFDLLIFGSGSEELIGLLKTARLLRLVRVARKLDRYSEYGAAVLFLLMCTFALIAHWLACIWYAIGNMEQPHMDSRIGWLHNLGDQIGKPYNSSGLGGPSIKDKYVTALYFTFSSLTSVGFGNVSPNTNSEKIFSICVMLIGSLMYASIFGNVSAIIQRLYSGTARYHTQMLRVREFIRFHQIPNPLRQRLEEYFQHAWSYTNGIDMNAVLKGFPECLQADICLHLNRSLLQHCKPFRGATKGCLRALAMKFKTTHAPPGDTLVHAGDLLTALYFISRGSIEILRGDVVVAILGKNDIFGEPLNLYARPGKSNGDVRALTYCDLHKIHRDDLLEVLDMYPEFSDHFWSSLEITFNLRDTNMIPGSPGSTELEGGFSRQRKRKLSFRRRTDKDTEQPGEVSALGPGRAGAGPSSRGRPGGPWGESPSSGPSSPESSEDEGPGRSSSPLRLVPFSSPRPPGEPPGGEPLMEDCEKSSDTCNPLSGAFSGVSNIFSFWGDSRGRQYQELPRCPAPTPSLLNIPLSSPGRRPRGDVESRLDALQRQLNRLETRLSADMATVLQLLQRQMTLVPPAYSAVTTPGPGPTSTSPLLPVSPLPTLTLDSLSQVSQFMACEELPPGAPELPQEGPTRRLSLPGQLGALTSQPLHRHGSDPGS

On to `Cc1ccc(NC(=S)c2nc3ccccc3s2)cc1`, for which the current remaining with dofetilide is 23.9% and the potentiation turned out to be 107%.
For `Cc1cccc(NC(=S)NC(=O)c2cc(-c3ccccc3)nc3ccccc23)c1` the same measures were 32.2% and 107%.
Consider `CCC1CCCCN1C(=S)NC(=O)c1cccs1` (stereo not given), for which the current remaining with dofetilide is 46.5% and the potentiation is 140%.
The matching figures for `O=C(NC(=S)Nc1ccccc1)c1cc(-c2ccccc2)nc2ccccc12`: 31% and 119%.
On to `O=C1C2CC=CCC2C(=O)N1c1ccc(Cc2ccncc2)cc1` (stereo not given), for which the current remaining with dofetilide was 33.8% and the potentiation is 107%.
